The source of these data is patent US8969325B2, “TRPV1 antagonists” (AbbVie Inc., priority 2011, dated 2015).

The target in experiment [1] is T1, human TRPV1 (Homo sapiens (Human), UniProt Q8NER1). The experiment is described as follows: Capsaicin Activation Assay (intracellular Ca2+, FLIPR). As to conditions: recombinant HEK293 cells expressing hTRPV1, 50 nM capsaicin. The class given is cell-based. Put shortly:
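Ca2+ fluorescence was recorded by FLIPR every 1 to 5 seconds in HEK293 cells, clonally selected for stable human TRPV1 expression and plated one day ahead. Test compounds came as serial dilutions of 10 mM DMSO stocks.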

The target in experiment [2] is T1, human TRPV1. The experiment is described as follows: Acid Activation Assay (pH 5.0, intracellular Ca2+, FLIPR). Format: cell-based. As to conditions: percentage of the maximal pH 5.0-induced response remaining; recombinant HEK293 hTRPV1 cells; maximum concentration tested 37.5 μM. Put shortly: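 Readout: peak [Ca2+]i fluorescence over baseline on FLIPR, expressed as percentage remaining of the maximal pH 5.0-evoked signal. Stable hTRPV1-HEK293 cells with Calcium-4 dye received compound (12 half-log concentrations, maximum 37.5 μM) 3 min before acidic pH 5.0 buffer.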

T1 sequence (Q8NER1 whole entry): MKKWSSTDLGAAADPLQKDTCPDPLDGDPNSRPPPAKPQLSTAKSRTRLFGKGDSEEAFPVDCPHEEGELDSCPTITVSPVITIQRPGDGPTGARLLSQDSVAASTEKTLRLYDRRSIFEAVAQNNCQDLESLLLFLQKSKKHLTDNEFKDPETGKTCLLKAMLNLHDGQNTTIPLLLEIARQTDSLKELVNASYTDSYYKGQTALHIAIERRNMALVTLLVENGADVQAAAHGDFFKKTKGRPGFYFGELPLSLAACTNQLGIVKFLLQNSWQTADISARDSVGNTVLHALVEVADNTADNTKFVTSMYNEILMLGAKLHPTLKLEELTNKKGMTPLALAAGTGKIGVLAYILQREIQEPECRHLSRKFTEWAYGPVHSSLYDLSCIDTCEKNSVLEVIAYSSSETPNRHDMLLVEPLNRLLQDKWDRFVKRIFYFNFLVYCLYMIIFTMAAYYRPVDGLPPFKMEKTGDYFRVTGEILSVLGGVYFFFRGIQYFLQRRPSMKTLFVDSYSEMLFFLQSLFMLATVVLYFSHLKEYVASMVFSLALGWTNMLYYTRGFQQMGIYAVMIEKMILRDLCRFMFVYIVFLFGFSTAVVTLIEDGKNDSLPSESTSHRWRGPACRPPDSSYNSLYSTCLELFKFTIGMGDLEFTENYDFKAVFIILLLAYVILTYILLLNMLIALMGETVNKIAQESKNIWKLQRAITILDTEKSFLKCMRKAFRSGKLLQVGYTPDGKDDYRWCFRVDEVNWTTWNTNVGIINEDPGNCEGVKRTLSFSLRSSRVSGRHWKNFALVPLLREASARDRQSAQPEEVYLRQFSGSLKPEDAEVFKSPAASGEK

The term IC50 denotes the concentration needed to halve the response being measured. Turning to `CN1C(=O)NCc2c(NC(=O)N[C@@H]3CCOc4cc(F)ccc43)cccc21` [Example 159, 1-[(4R)-7-fluoro-3,4-dihydro-2H-chromen-4-yl]-3-(1-methyl-2-oxo-1,2,3,4-tetrahydroquinazolin-5-yl)urea], the IC50 in experiment [1] is 600 nM. The “human TRPV1 H^+ (max % remain)” value in experiment [2] is listed as 21%.
The corresponding values for `CN1C(=O)NCc2c(NC(=O)N[C@@H]3CCOc4cc(C(F)(F)F)ccc43)cccc21` [Example 160, 1-(1-methyl-2-oxo-1,2,3,4-tetrahydroquinazolin-5-yl)-3-[(4R)-7-(trifluoromethyl)-3,4-dihydro-2H-chromen-4-yl]urea] are 42 nM and 23%.
For `CN1C(=O)NCc2c(NC(=O)NC3COc4cc(Cl)ccc4C3)cccc21` (centres unmarked) [Example 161, 1-(7-chloro-3,4-dihydro-2H-chromen-3-yl)-3-(1-methyl-2-oxo-1,2,3,4-tetrahydroquinazolin-5-yl)urea] the same measures were 95 nM and 9%.
With `CCN1C(=O)NCc2c(NC(=O)N[C@@H]3CC(CF)(CF)Oc4cc(Cl)ccc43)cccc21` [Example 162, 1-[(4R)-7-chloro-2,2-bis(fluoromethyl)-3,4-dihydro-2H-chromen-4-yl]-3-(1-ethyl-2-oxo-1,2,3,4-tetrahydroquinazolin-5-yl)urea], the concentration for half-maximal inhibition (IC50) in experiment [1] was 130 nM. In addition, in experiment [2], the “human TRPV1 H^+ (max % remain)” value came out at 0%.
The corresponding values for `CN1C(=O)NCc2c(NC(=O)N[C@@H]3C[C@](C)(CF)Oc4ccccc43)cccc21` [Example 163, 1-[(2R,4R)-2-(fluoromethyl)-2-methyl-3,4-dihydro-2H-chromen-4-yl]-3-(1-methyl-2-oxo-1,2,3,4-tetrahydroquinazolin-5-yl)urea] are 220 nM and 33%.
For `CN1C(=O)NCc2c(NC(=O)N[C@@H]3C[C@@](C)(CF)Oc4ccccc43)cccc21` [Example 164, 1-[(2S,4R)-2-(fluoromethyl)-2-methyl-3,4-dihydro-2H-chromen-4-yl]-3-(1-methyl-2-oxo-1,2,3,4-tetrahydroquinazolin-5-yl)urea] the same measures were 120 nM and 35%.
The corresponding values for `CN1C(=O)NCc2c(NC(=O)N[C@@H]3C[C@@](C)(C(F)(F)F)Oc4ccccc43)cccc21` [Example 165, 1-(1-methyl-2-oxo-1,2,3,4-tetrahydroquinazolin-5-yl)-3-[(2S,4R)-2-methyl-2-(trifluoromethyl)-3,4-dihydro-2H-chromen-4-yl]urea] are 3 nM and 18%.
`CN1C(=O)NCc2c(NC(=O)N[C@@H]3C[C@](C)(C(F)(F)F)Oc4ccccc43)cccc21` [Example 166, 1-(1-methyl-2-oxo-1,2,3,4-tetrahydroquinazolin-5-yl)-3-[(2R,4R)-2-methyl-2-(trifluoromethyl)-3,4-dihydro-2H-chromen-4-yl]urea]: the IC50 in experiment [1] turned out to be 1 nM. The “human TRPV1 H^+ (max % remain)” value in experiment [2] worked out at 10%.
Turning to `CN1Cc2c(NC(=O)N[C@@H]3CC(CF)(CF)Oc4cc(Cl)ccc43)cccc2N(C)C1=O` [Example 167, 1-[(4R)-7-chloro-2,2-bis(fluoromethyl)-3,4-dihydro-2H-chromen-4-yl]-3-(1,3-dimethyl-2-oxo-1,2,3,4-tetrahydroquinazolin-5-yl)urea], the IC50 in experiment [1] was found to be 5 nM. The “human TRPV1 H^+ (max % remain)” value in experiment [2] is 5%.
For `CN1C(=O)NCc2c(NC(=O)N[C@@H]3CCOc4ccccc43)cccc21` [Example 168, 1-[(4R)-3,4-dihydro-2H-chromen-4-yl]-3-(1-methyl-2-oxo-1,2,3,4-tetrahydroquinazolin-5-yl)urea] the same measures were 1200 nM and 28%.
For `CN1C(=O)NCc2c(NC(=O)N[C@H]3CCOc4cc(OC(F)(F)F)ccc43)cccc21` [Example 169, 1-(1-methyl-2-oxo-1,2,3,4-tetrahydroquinazolin-5-yl)-3-[(4S)-7-(trifluoromethoxy)-3,4-dihydro-2H-chromen-4-yl]urea] the same measures were over 38000 nM and 96%.
For `CN1Cc2ccc(NC(=O)N[C@@H]3CC(CF)(CF)Oc4cc(Cl)ccc43)cc2NC1=O` [Example 170, 1-[(4R)-7-chloro-2,2-bis(fluoromethyl)-3,4-dihydro-2H-chromen-4-yl]-3-(3-methyl-2-oxo-1,2,3,4-tetrahydroquinazolin-7-yl)urea] the same measures were 130 nM and 16%.
Regarding `CN1Cc2ccc(NC(=O)N[C@@H]3C[C@@](C)(C(F)F)Oc4ccccc43)cc2NC1=O` [Example 171, 1-[(2S,4R)-2-(difluoromethyl)-2-methyl-3,4-dihydro-2H-chromen-4-yl]-3-(3-methyl-2-oxo-1,2,3,4-tetrahydroquinazolin-7-yl)urea], the IC50 in experiment [1] worked out at 1300 nM. Also, the “human TRPV1 H^+ (max % remain)” value in experiment [2] was found to be 63%.
On to `CN1Cc2ccc(NC(=O)N[C@@H]3CC(C)(C)Oc4c3ccc(F)c4Cl)cc2NC1=O` [Example 172, 1-[(4R)-8-chloro-7-fluoro-2,2-dimethyl-3,4-dihydro-2H-chromen-4-yl]-3-(3-methyl-2-oxo-1,2,3,4-tetrahydroquinazolin-7-yl)urea], for which the IC50 in experiment [1] stood at 210 nM. Also, the “human TRPV1 H^+ (max % remain)” value in experiment [2] is listed as 51%.
For `CN1Cc2ccc(NC(=O)N[C@@H]3CC(CF)(CF)Oc4cc(C(F)(F)F)ccc43)cc2NC1=O` [Example 173, 1-[(4R)-2,2-bis(fluoromethyl)-7-(trifluoromethyl)-3,4-dihydro-2H-chromen-4-yl]-3-(3-methyl-2-oxo-1,2,3,4-tetrahydroquinazolin-7-yl)urea] the same measures were 100 nM and 54%.
The corresponding values for `CN1Cc2ccc(NC(=O)N[C@@H]3CCc4cc(C(F)(F)F)ccc43)cc2NC1=O` [Example 174, 1-(3-methyl-2-oxo-1,2,3,4-tetrahydroquinazolin-7-yl)-3-[(1R)-5-(trifluoromethyl)-2,3-dihydro-1H-inden-1-yl]urea] are 130 nM and 52%.
For `CN1Cc2ccc(NC(=O)N[C@@H]3CCOc4ccccc43)cc2NC1=O` [Example 175, 1-[(4R)-3,4-dihydro-2H-chromen-4-yl]-3-(3-methyl-2-oxo-1,2,3,4-tetrahydroquinazolin-7-yl)urea] the same measures were 4100 nM and 62%.
Take `CN1Cc2ccc(NC(=O)N[C@@H]3CC(C)(C)Oc4cc(F)ccc43)cc2NC1=O` [Example 176, 1-[(4R)-7-fluoro-2,2-dimethyl-3,4-dihydro-2H-chromen-4-yl]-3-(3-methyl-2-oxo-1,2,3,4-tetrahydroquinazolin-7-yl)urea]: in experiment [1], the concentration for half-maximal inhibition (IC50) is 120 nM. Further, in experiment [2], the “human TRPV1 H^+ (max % remain)” value was 50%.
For `CCC1(CC)C[C@@H](NC(=O)Nc2ccc3c(c2)NC(=O)N(C)C3)c2cccc(F)c2O1` [Example 177, 1-[(4R)-2,2-diethyl-8-fluoro-3,4-dihydro-2H-chromen-4-yl]-3-(3-methyl-2-oxo-1,2,3,4-tetrahydroquinazolin-7-yl)urea] the same measures were 91 nM and 59%.
For `CCC1(CC)C[C@@H](NC(=O)Nc2ccc3c(c2)NC(=O)N(C)C3)c2ccccc2O1` [Example 178, 1-[(4R)-2,2-diethyl-3,4-dihydro-2H-chromen-4-yl]-3-(3-methyl-2-oxo-1,2,3,4-tetrahydroquinazolin-7-yl)urea] the same measures were 72 nM and 52%.
The corresponding values for `CN1Cc2ccc(NC(=O)N[C@@H]3CCc4cc(C(C)(C)C)ccc43)cc2NC1=O` [Example 179, 1-[(1R)-5-tert-butyl-2,3-dihydro-1H-inden-1-yl]-3-(3-methyl-2-oxo-1,2,3,4-tetrahydroquinazolin-7-yl)urea] are 190 nM and 37%.
Turning to `CCC1(CC)C[C@@H](NC(=O)Nc2ccc3c(c2)NC(=O)N(C)C3)c2ccc(C(F)(F)F)cc2O1` [Example 180, 1-[(4R)-2,2-diethyl-7-(trifluoromethyl)-3,4-dihydro-2H-chromen-4-yl]-3-(3-methyl-2-oxo-1,2,3,4-tetrahydroquinazolin-7-yl)urea], the IC50 in experiment [1] is 230 nM. In addition, in experiment [2], the “human TRPV1 H^+ (max % remain)” value was determined as 12%.
The corresponding values for `CCC1(CC)C[C@@H](NC(=O)Nc2ccc3c(c2)NC(=O)N(C)C3)c2ccc(Cl)cc2O1` [Example 181, 1-[(4R)-7-chloro-2,2-diethyl-3,4-dihydro-2H-chromen-4-yl]-3-(3-methyl-2-oxo-1,2,3,4-tetrahydroquinazolin-7-yl)urea] are 210 nM and 28%.
In the case of `CCC1(CC)C[C@@H](NC(=O)Nc2ccc3c(c2)NC(=O)N(C)C3)c2ccc(Cl)c(Cl)c2O1` [Example 182, 1-[(4R)-7,8-dichloro-2,2-diethyl-3,4-dihydro-2H-chromen-4-yl]-3-(3-methyl-2-oxo-1,2,3,4-tetrahydroquinazolin-7-yl)urea], the concentration for half-maximal inhibition (IC50) in experiment [1] is 380 nM. Also, the “human TRPV1 H^+ (max % remain)” value in experiment [2] stood at 29%.
The corresponding values for `CN1Cc2ccc(NC(=O)N[C@@H]3CC(CF)(CF)Oc4cc(OC(F)(F)F)ccc43)cc2NC1=O` [Example 183, 1-[(4R)-2,2-bis(fluoromethyl)-7-(trifluoromethoxy)-3,4-dihydro-2H-chromen-4-yl]-3-(3-methyl-2-oxo-1,2,3,4-tetrahydroquinazolin-7-yl)urea] are 120 nM and 42%.
